Like-named read-outs stand apart in the source and are kept apart here.
Target: human TRPA1 channel (Homo sapiens (Human), UniProt O75762)
Assay: hTRPA1 CHO Ca2+ FLIPR Tetra assay: block of cinnamaldehyde induced calcium influx
Format: cell-based
Settings: CHO cells expressing TRPA1, Hill coefficient fixed to 1.5
Experimental: CHO cells expressing TRPA1 were plated into 384-well plates, incubated overnight at 37° C., and loaded with BD calcium indicator dye for 1 hr at 37° C. followed by 15 minutes at room temperature. The assay buffer was Hank's Balanced Salt Solution (HBSS) containing 20 mM HEPES (pH readjusted to 7.4) along with 0.02% BSA.
Following dye load and plate cool down, compounds were added to the cells using FLIPR Tetra. Plates were then incubated with compounds for 10 minutes or 90 minutes at room temperature prior to adding agonist. Following this incubation, about an EC80 concentration of cinnamaldehyde […] was added to active the channels and block of cinnamaldehyde induced calcium influx was measured.
Fixing the Hill coefficient will generally reduce variability of the IC50 determination. The IC50 results were individually examined to make sure the MIN and MAX points were set correctly prior to validation of the results.

[1] = hTRPA1 IC50 10 min, 10 minutes incubation with compound before cinnamaldehyde (about EC80)
[2] = hTRPA1 IC50 90 min, 90 minutes incubation with compound before cinnamaldehyde (about EC80)
[3] = read-out: hTRPA1 IC50 10 min, 10 minutes incubation with compound before cinnamaldehyde (about EC80)
[4] = read-out: hTRPA1 IC50 90 min, 90 minutes incubation with compound before cinnamaldehyde (about EC80)

Sequence of human TRPA1 channel (O75762 whole entry): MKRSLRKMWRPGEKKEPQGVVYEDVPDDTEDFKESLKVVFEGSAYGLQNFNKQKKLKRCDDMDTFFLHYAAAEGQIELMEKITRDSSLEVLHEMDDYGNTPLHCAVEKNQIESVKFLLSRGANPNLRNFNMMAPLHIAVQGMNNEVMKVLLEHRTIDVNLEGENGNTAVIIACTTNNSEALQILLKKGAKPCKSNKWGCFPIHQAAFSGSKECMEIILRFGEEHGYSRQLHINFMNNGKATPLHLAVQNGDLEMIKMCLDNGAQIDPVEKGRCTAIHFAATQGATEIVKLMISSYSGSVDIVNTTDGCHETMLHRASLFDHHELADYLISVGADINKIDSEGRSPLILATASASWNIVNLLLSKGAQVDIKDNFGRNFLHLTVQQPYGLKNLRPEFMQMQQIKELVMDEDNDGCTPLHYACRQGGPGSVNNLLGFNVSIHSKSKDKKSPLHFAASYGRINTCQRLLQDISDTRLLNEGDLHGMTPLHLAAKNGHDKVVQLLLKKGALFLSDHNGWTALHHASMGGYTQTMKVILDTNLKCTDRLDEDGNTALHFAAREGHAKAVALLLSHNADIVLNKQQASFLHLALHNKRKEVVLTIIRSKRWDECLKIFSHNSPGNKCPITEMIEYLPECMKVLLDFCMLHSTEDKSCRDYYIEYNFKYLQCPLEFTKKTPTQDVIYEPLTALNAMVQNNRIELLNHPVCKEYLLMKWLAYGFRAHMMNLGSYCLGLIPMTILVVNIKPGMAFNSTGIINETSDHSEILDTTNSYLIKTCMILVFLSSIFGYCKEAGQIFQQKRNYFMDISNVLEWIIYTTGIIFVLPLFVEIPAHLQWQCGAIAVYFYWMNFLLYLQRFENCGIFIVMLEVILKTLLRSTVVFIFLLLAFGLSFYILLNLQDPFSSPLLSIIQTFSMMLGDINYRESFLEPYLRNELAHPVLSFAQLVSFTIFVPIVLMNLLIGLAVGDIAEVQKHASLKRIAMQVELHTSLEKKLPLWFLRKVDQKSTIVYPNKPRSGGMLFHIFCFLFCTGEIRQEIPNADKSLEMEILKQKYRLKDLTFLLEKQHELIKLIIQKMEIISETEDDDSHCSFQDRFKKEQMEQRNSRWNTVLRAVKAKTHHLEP

| SMILES | IC50 [1] [nM] | IC50 [2] [nM] | IC50 [3] [nM] | IC50 [4] [nM] |
| --- | --- | --- | --- | --- |
| Cc1cnn2nc(N)n(Cc3nc([C@@H]4CO[C@@H](c5ccc(F)cc5)C4)no3)c(=O)c12 [Example 3, 2-amino-3-((3-((3R,5R)-5-(4-fluorophenyl)tetrahydrofuran-3-yl)-1,2,4-oxadiazol-5-yl)methyl)-5-methylpyrazolo[5,1-f][1,2,4]triazin-4(3H)-one] |  |  | 5.02 | 1.3 |
| Cn1cnc2[nH]c(=O)n(Cc3nc([C@@H]4CO[C@@H](c5ccc(Cl)cc5)C4)no3)c(=O)c21 [Example 7, 1-((3-((3R, 5R)-5-(4-chlorophenyl)-tetrahydrofuran-3-yl)-1,2,4-oxadiazol-5-yl)methyl)-7-methyl-1H-purine-2,6(3H,7H)-dione] |  |  | 313 | 23 |
| Cc1nc2ncn(C)c2c(=O)n1Cc1nc([C@@H]2CO[C@@H](c3ccc(Cl)cc3)C2)no1 [Example 8, 1-((3-((3R,5R)-5-(4-chlorophenyl)tetrahydrofuran-3-yl)-1,2,4-oxadiazol-5-yl)methyl)-2,7-dimethyl-1H-purin-6(7H)-one] | 9.38 |  |  | 4.1 |
| Cn1c(=O)[nH]c2ncn(Cc3nc([C@@H]4CO[C@@H](c5ccc(Cl)cc5)C4)no3)c(=O)c21 [Example 9, 1-((3-((3R, 5R)-5-(4-chlorophenyl)-tetrahydrofuran-3-yl)-1,2,4-oxadiazol-5-yl)methyl)-7-methyl-1H-purine-6,8(7H,9H)-dione] |  |  | 40.4 | 11 |
| Cn1cnc2ncn(Cc3nc([C@@H]4CO[C@@H](c5cccc(F)c5)C4)no3)c(=O)c21 [Example 10, 1-((3-((3R,5R)-5-(3-fluorophenyl)tetra-hydrofuran-3-yl)-1,2,4-oxadiazol-5-yl)methyl)-7-methyl-1,7-dihydro-6H-purin-6-one] |  |  | 27.4 | 17 |
| O=c1c2cccnc2cnn1Cc1nc([C@@H]2CO[C@@H](c3ccc(F)cc3)C2)no1 [Example 11, 6-((3-((3R,5R)-5-(4-fluorophenyl)tetra-hydrofuran-3-yl)-1,2,4-oxadiazol-5-yl)methyl)pyrido[2,3-d]pyridazin-5(6H)-one] |  |  | 16.6 | 13 |
| Cn1nnc2ncn(Cc3nc([C@@H]4CO[C@@H](c5ccc(F)cc5)C4)no3)c(=O)c21 [Example 12, 6-((3-((3R,5R)-5-(4-fluorophenyl)tetra-hydrofuran-3-yl)-1,2,4-oxadiazol-5-yl)methyl)-1-methyl-1,6-dihydro-7H-[1,2,3]triazolo[4,5-d]pyrimidin-7-one] |  |  | 7.55 | 3.4 |
| Cn1cnc2ncn(Cc3nc([C@@H]4CO[C@@H](c5ccccc5)C4)no3)c(=O)c21 [Example 13, 7-methyl-1-((3-((3R,5R)-5-phenyltetrahydrofuran-3-yl)-1,2,4-oxadiazol-5-yl)methyl)-1,7-dihydro-6H-purin-6-one] |  |  | 82.3 | 33 |
| Cn1cnc2ncn(Cc3nc([C@@H]4CO[C@@H](c5ccccc5Cl)C4)no3)c(=O)c21 [Example 14, 1-((3-((3R,5R)-5-(2-chlorophenyl)tetra-hydrofuran-3-yl)-1,2,4-oxadiazol-5-yl)methyl)-7-methyl-1,7-dihydro-6H-purin-6-one] |  |  | 335 | 160 |
| Cn1cnc2ncn(Cc3nc([C@@H]4CO[C@@H](c5ccccc5F)C4)no3)c(=O)c21 [Example 15, 1-((3-((3R,5R)-5-(2-fluorophenyl)tetrahydro-furan-3-yl)-1,2,4-oxadiazol-5-yl)methyl)-7-methyl-1,7-dihydro-6H-purin-6-one] |  |  | 127 | 59 |

Further lines, results first:

| IC50 [1] [nM] | IC50 [2] [nM] | IC50 [3] [nM] | IC50 [4] [nM] | SMILES |
| --- | --- | --- | --- | --- |
| 43.1 | 6.2 |  |  | Cc1nc2nc(N)n(Cc3nc([C@@H]4CO[C@@H](c5ccc(Cl)cc5)C4)no3)c(=O)c2n1C (racemic) [Example 152, 2-amino-7,8-dimethyl-1-[[3-[rac-(3R,5R)-5-(4-chlorophenyl)tetrahydro-furan-3-yl]-1,2,4-oxadiazol-5-yl]methyl]purin-6-one] |
| 6.35 | 1.8 |  |  | Cn1c(=O)oc2ncn(Cc3nc([C@@H]4CO[C@@H](c5ccc(Cl)cc5)C4)no3)c(=O)c21 (racemic) [Example 153, 1-methyl-6-[[3-[rac-(3R,5R)-5-(4-chlorophenyl)tetrahydro-furan-3-yl]-1,2,4-oxadiazol-5-yl]methyl] oxazolo[5,4-d] pyrimidine-2,7-dione] |
|  | 2.3 |  |  | Nc1nc2ncsc2c(=O)n1Cc1nc([C@@H]2CO[C@@H](c3ccc(F)cc3)C2)no1 (racemic) [Example 154, 5-amino-6-[[3-[rac-(3R,5R)-5-(4-fluorophenyl)tetrahydro-furan-3-yl]-1,2,4-oxadiazol-5-yl]methyl]thiazolo[4,5-d]pyrimidin-7-one] |
| 16.1 | 2.1 |  |  | Cn1nnc2nc(N)n(Cc3nc([C@@H]4CO[C@@H](c5ccc(Cl)cc5)C4)no3)c(=O)c21 (racemic) [Example 156, 5-amino-1-methyl-6-[[3-[rac-(3R,5R)-5-(4-chlorophenyl)tetrahydro-furan-3-yl]-1,2,4-oxadiazol-5-yl]methyl]triazolo[4,5-d]pyrimidin-7-one] |
| 470 | 87 |  |  | Cn1cnc2nc(N)n(Cc3nc([C@@H]4CO[C@@H](c5ccc(F)cc5)C4)no3)c2c1=O (racemic) [Example 157, 8-amino-1-methyl-7-[[3-[rac-(3R,5R)-5-(4-fluorophenyl)tetrahydro-furan-3-yl]-1,2,4-oxadiazol-5-yl]methyl]purin-6-one] |
| 5.73 | 1.4 |  |  | Nc1nc2ncsc2c(=O)n1Cc1nc([C@@H]2CO[C@@H](c3ccc(Cl)cc3)C2)no1 (racemic) [Example 158, 5-amino-6-[[3-[rac-(3R,5R)-5-(4-chlorophenyl)tetrahydro-furan-3-yl]-1,2,4-oxadiazol-5-yl]methyl]thiazolo[4,5-d]pyrimidin-7-one] |
|  |  | 4.9 | 2.7 | Cn1nnc2ncn(Cc3nc([C@@H]4CO[C@@H](c5ccc(Cl)cc5)C4)no3)c(=O)c21 [Example 16, 6-((3-((3R,5R)-5-(4-chlorophenyl)tetra-hydrofuran-3-yl)-1,2,4-oxadiazol-5-yl)methyl)-1-methyl-1,6-dihydro-7H-[1,2,3]triazolo[4,5-d]pyrimidin-7-one] |
|  |  | 29.5 | 14 | Cn1cnc2ncn(Cc3nc([C@@H]4CO[C@@H](c5cccc(Cl)c5)C4)no3)c(=O)c21 [Example 17, 1-((3-((3R,5R)-5-(3-chlorophenyl)tetrahydro-furan-3-yl)-1,2,4-oxadiazol-5-yl)methyl)-7-methyl-1,7-dihydro-6H-purin-6-one] |
|  |  | 173 | 130 | Cn1cnc2ncn(Cc3nc([C@@H]4CO[C@@H](c5ccc(F)c(F)c5)C4)no3)c(=O)c21 [Example 18, 1-((3-((3R,5R)-5-(3,4-difluorophenyl)tetra-hydrofuran-3-yl)-1,2,4-oxadiazol-5-yl)methyl)-7-methyl-1,7-dihydro-6H-purin-6-one] |
|  |  | 150 | 110 | Cn1cnc2ncn(Cc3nc([C@@H]4CO[C@@H](c5ccc(OC(F)F)cc5)C4)no3)c(=O)c21 [Example 19, 1-((3-((3R,5R)-5-(4-(difluoromethoxy)phenyl)tetrahydrofuran-3-yl)-1,2,4-oxadiazol-5-yl)methyl)-7-methyl-1,7-dihydro-6H-purin-6-one] |
|  |  | 7.05 | 3.6 | Cc1ccnc2ncn(Cc3nc([C@@H]4CO[C@@H](c5ccc(F)cc5)C4)no3)c(=O)c12 [Example 20, 3-((3-((3R,5R)-5-(4-fluorophenyl)tetrahydro-furan-3-yl)-1,2,4-oxadiazol-5-yl)methyl)-5-methylpyrido[2,3-d]pyrimidin-4(3H)-one] |
|  |  | 98.5 | 67 | Cn1cnc2ncn(Cc3nc([C@@H]4CO[C@@H](c5ccc(OC(F)(F)F)cc5)C4)no3)c(=O)c21 [Example 21, 7-methyl-1-((3-((3R,5R)-5-(4-(trifluoromethoxy)phenyl)tetrahydro-furan-3-yl)-1,2,4-oxadiazol-5-yl)methyl)-1,7-dihydro-6H-purin-6-one] |
|  |  | 126 | 19 | Cn1c(N)nc2ncn(Cc3nc([C@@H]4CO[C@@H](c5ccc(F)cc5)C4)no3)c(=O)c21 [Example 22, 8-amino-1-((3-((3R,5R)-5-(4-fluorophenyl)tetrahydro-furan-3-yl)-1,2,4-oxadiazol-5-yl)methyl)-7-methyl-1,7-dihydro-6H-purin-6-one] |
|  |  | 45.7 | 24 | Cn1cnc2c(C#N)nn(Cc3nc([C@@H]4CO[C@@H](c5ccc(Cl)cc5)C4)no3)c2c1=O [Example 23, 1-((3-((3R,5R)-5-(4-chlorophenyl)tetrahydro-furan-3-yl)-1,2,4-oxadiazol-5-yl)methyl)-6-methyl-7-oxo-6,7-dihydro-1H-pyrazolo[4,3-d]pyrimidine-3-carbonitrile] |
|  |  | 7.2 | 4.9 | O=c1c2cccnc2cnn1Cc1nc([C@@H]2CO[C@@H](c3ccc(Cl)cc3)C2)no1 [Example 24, 6-((3-((3R,5R)-5-(4-chlorophenyl)tetrahydro-furan-3-yl)-1,2,4-oxadiazol-5-yl)methyl)pyrido[2,3-d]pyridazin-5(6H)-one] |

Source: US10710994B2, “Oxadiazole transient receptor potential channel inhibitors” (Genentech, Inc., priority 2018, dated 2020)
